Here are results for four molecules from patent publication US20040096815A1, “Method of identifying an eventual modification of at least one biological parameter making use of living cells which are subjected to a stress and living cells which are not subjected to this same stress” (COLETICA, priority 2002, published 2004).

Read-outs that look alike come from different tables or passages of the source.

For experiment [1], the system named is pigmented reconstructed skins. As to the kind of experiment: Interleukin secretion (Fluorokine MAP) of pigmented reconstructed skins under repeated solar irradiation with anti-oxidant actives. Format: cell-based. The conditions noted are these: for restoring cell viability and synthesis of pro-inflammatory interleukins after solar irradiation: actives at 3% in a cosmetic formulation; for IL1 beta secretion (Fluorokine MAP) / IL6 secretion (Fluorokine MAP) / IL8 secretion (Fluorokine MAP) / TNF alpha secretion (Fluorokine MAP): solar irradiation 561 KJ/m^2 twice per week for two weeks, 8 μl cosmetic formulation with active at 3%, 10 days. The method, then:
The reconstructed dermis comprising cells called <<stressed cells>> or <<reference cells>> are then incubated in a medium without serum (FBM, Promocell) for 24 hours. The cell viability in the matrices is evaluated by a test with MTT (methylthiazoletetrazolium) and is expressed in percentage of the non-irradiated control. The media are collected, centrifuged, and the cytokines content is determined by the Fluorokine MAP kit (R&D Systems). Briefly, 50 μl of standards or of samples are pipetted into identified wells. 50 μl of microparticles immobilizing specific antibodies of different cytokines are added into the wells as a function of a pre-defined plate plan. After one hour of incubation under orbital agitation, and elimination of the non-fixed substances by washing, labeled antibodies which are specific of different cytokines are added into the wells and are incubated for 2 hours under orbital agitation. After washing, the microparticles are suspended in washing buffer, are agitated for 1 minute under orbital agitation. The reading is carried out immediately on a Luminex 100 Analyser (R&D Systems). The contents of the different cytokines which are present in the media analyzed are determined by virtue of calibration ranges made with highly purified recombinant human cytokines. This technique enables an experimentation to analyze the cellular secretion of various cytokines (IL-1β, IL-2, IL-4, IL-6, IL-8, IL-10, TNFα, GM-CSF, G-CSF, VEGF, bFGF, G-CSF, IFNγ).
The cells extracted are obtained from a mammary biopsy non-exposed to the stress studied. 400,000 fibroblasts, amplified until passage 5 (5th amplification by trypsination) as described in Example 1, are sown on dermal substrates based on surfaced sponges of collagen, in a DMEM-Glutamax culture medium supplemented with 10% of hyclone II calf serum, with ascorbic acid-2-phosphate at a final concentration of 1 millimolar, with EGF or Epidermal growth factor at a final concentration of 10 ng/mL, with penicillin at a final concentration of 100 IU/milliliter, with amphotericin B at a final concentration of 1 microgram/milliliter, and with gentamycin at a final concentration of 20 micrograms/milliliter, and for a period of culture of 14 days.
Then, 400,000 keratinocytes and 10,000 melanocytes, amplified until passage 2 (2nd amplification by trypsination) as described in Example 1, are sown on the dermal equivalents in a DMEM-Glutamax/Ham F-12 (ratio 3/1 v/v) culture medium supplemented with 10% of Hyclone II calf serum, with ascorbic acid-2-phosphate at a final concentration of 1 millimolar, with EGF at a final concentration of 10 ng/mL, with hydrocortisone at a final concentration of 0.4 micrograms/milliliter, with umulin at a final concentration of 0.12 IU/milliliter, with isuprel at a final concentration of 0.4 micrograms/milliliter, with triiodothyronine at a final concentration of 2.10^−9 molar, with adenine at a final concentration of 24.3 micrograms/milliliter, with penicillin at a final concentration of 100 IU/milliliter, with amphotericin B at a final concentration of 1 microgram/milliliter, and with gentamycin at a final concentration of 20 micrograms/milliliter, and for a period of immersion culture of 7 days.
The cultures are then placed at the air-liquid interface for 14 days in the same culture medium as that used for the immersion culture, except the calf serum, the hydrocortisone, the isuprel, the triiodothyronine and the umulin.
Twice per week and for two weeks, the immersion medium is eliminated and replaced by PBS at pH 7.4. Certain pigmented reconstructed skins present in the inserts are preserved at ambient temperature; this model comprises cells which are called “reference cells”. Other pigmented reconstructed skins present in the inserts are irradiated at 561 KJ/m^2 (corresponding to an average hour of exposure in Central Europe) with the aid of a solar irradiator Suntest CPS+ (ATLAS); this model comprises cells which are called “stressed cells”.

In experiment [2] the test system is reconstructed skins. The method, then: Reconstructed skins are made according to the protocol described in Example 6.
The UVB irradiation at the rate of 50 mJ/cm^2 is made for half the samples comprising <> cells. The other samples are preserved at ambient temperature under the same conditions, and constitute samples comprising <> cells.
At the end of experimentation, the content of tropoelastin mRNA, collagen of type I and collagen of type III is evaluated by a real time RT-PCR technique. For this, couples of primers enabling the amplification of specific fragments of tropoelastin, of collagen of type I and of collagen of type III (sense 18/antisense 19 and sense 18/antisense 20, respectively) and actin sequence primers (541 pairs of bases) were used. After extraction in TriReagent® (Sigma) and purification of the RNAs according to the protocol of the supplier, the reactions of RT-PCR (Reverse Polymerase Transcription Chain reactions) are carried out by quantitative real time RT-PCR with the aid of the <<Opticon>> system (MJ Research).
The reaction mixture (50 μl) introduced into the well is the following, for each sample:
10 μl of RNA at the concentration of 5 ng/μl.
The primers of the various labelers used
Reaction mixture (Qiagen-25 μl 2×QuantiTect SYBR Green RT-PCR master mix containing 5 mM MgCl2+0.5 μl QuantiTect RT mix), the labeler SYBR Green I inserting itself in the DNA double strand during elongation step).
Reverse transcription: 30 min at 50° C.,
PCR reactions: [15 sec at 94° C., 30 sec at 60° C. and 30 sec at 72° C.], 50 cycles.
The absence of contamination and the purity of the products amplified are verified by the melting curves of the amplified PCR products. The products having a double peak or an abnormal melting temperature are eliminated.
The incorporation of fluorescence in the amplified DNA was evaluated continuously during the PCR cycles. This system enables obtaining fluorescence measurement curves as a function of the number of PCR cycles and thus to evaluate a relative quantity of amplified DNA.
In order to take account of the:cell population present in the reconstructed skins, all the results were attributed to the signal <>, used as housekeeping gene.
According to the experimentation, the measurement threshold of the C(T) (=cycle threshold) is fixed for T between 0.05 and 0.01 and then an arbitrary unit of measurement is calculated for each gene according to the formula:
Sgene <>=10^7X(½)^C(T)gene <<X>>
C(T)gene <> signifying the measurement threshold of the C(T) (Cycle Threshold) of the gene <>.
The values of the genes of interest are attributed to the signal <> by calculation of the ratio:
These ratios are compared between the treated and non-treated samples.

For experiment [3], the system named is reconstructed gingival mucous membrane epithelia. As to the kind of experiment: mRNA Expression Array on reconstructed gingival mucous membrane epithelia treated with irritant/sensitizing agents or actives. It counts as cell-based. As to conditions: (treated/non-stressed)x100; 20 μl per epithelium 1 h, then 24 h; SLS 5%, LPS 1000 U/ml, Prednisolone 10 mM, Inhipase 3%. The text has this:
1 to 2.10^6 epithelial cells of gingival mucous membrane called <<reference gingival mucous membrane epithelia cells>> (gingival biopsy, Passage 3 (3rd amplification by trypsination)), extracted as described in Example 1, are sown in Boyden chamber-type inserts (membrane of porosity 0.4 μm and diameter 10 mm—fibroblast nutrient under layer), in a DMEM-Glutamax/Ham F-12 (ratio 3/1 v/v) culture medium supplemented with 10% of Hyclone II calf serum, with ascorbic acid-2-phosphate at a final concentration of 1 millimolar, with EGF at a final concentration of 10 ng/mL, with hydrocortisone at a final concentration of 0.4 micrograms/milliliter, with umulin at a final concentration of 0.12 IU/milliliter, with isuprel at a final concentration of 0.4 micrograms/milliliter, with triiodothyronine at a final concentration of 2.10^−9 molar, with adenine at a final concentration of 24.3 micrograms/milliliter, with penicillin at a final concentration of 100 IU/milliliter, with amphotericin B at a final concentration of 1 microgram/milliliter, and with gentamycin at a final concentration of 20 micrograms/milliliter, and for a period of culture by immersion of 3 to 8 days.
The cultures of epithelial cells are then maintained in immersion for 12 to 18 days in the same culture medium as that used for the immersion culture, except the percentage of calf serum which is lowered by 10% to 1%.
At the end of experimentation, the medium is eliminated and replaced with PBS pH 7.4, and the reconstructed epithelia Which are present in the inserts are stressed by various potentially irritant or sensitizing agents, at the rate of 20 μl per epithelium and for one hour: 5% sodium lauryl sulfate (SLS), Lipopolysaccharide (LPS) 1000 U/ml, an anti-inflammatory agent Prednisolone 10 mM (Sigma) and an active Inhipase® 3% (extract of the root of pueraria lobata, Coletica) also at the rate of 20 μl per epithelium, for 1 hour. The agents applied on the reconstructed epithelia are then eliminated and then the reconstructed epithelia are incubated for 24 additional hours in immersion medium without calf serum. Certain reconstructed epithelia are analyzed in terms of cell viability by a test with MTT (methylthiazoletetrazolium). Other reconstructed epithelia are scraped off and taken up into Tri Reagent® (T9424 Sigma, St Louis USA) and then extracted with chloroform. After centrifugation at 12,000 g for 15 minutes at 4° C., the RNAs are found in the upper layer.
The determination of the mRNAs of the epithelia is made by Expression Array (R&D System), according to the protocol defined by the supplier.

The mark [4] stands for this setting: UVB 50 mJ/cm^2, then 24 h with active at 1%.
Where [5] appears, read: UVB 50 mJ/cm^2, then 24 h with active at 3%.

With Quercitine Caprylate [Flavenger ®], in experiment [1], the “restoring cell viability and synthesis of pro-inflammatory interleukins after solar irradiation” value is recorded as “have shown an effectiveness capable of tending to restoring the reference level for these two parameters”; the “IL1 beta secretion (Fluorokine MAP)” value was found to be 97 pg/mL; the “IL6 secretion (Fluorokine MAP)” value worked out at 426 pg/mL; the “IL8 secretion (Fluorokine MAP)” value is 294 pg/mL. In addition, in experiment [1], the “TNF alpha secretion (Fluorokine MAP)” value amounted to 89 pg/mL. Also, the “limiting the UVB-induced increase in RNAs of collagen type I, type III and elastin” value in experiment [2] (1 and 3%) is given as “enables limiting the effects of the UVB stress induced by restoring, in a dose-dependent manner, the synthesis of these molecules”. In experiment [2] (setting [4]), the “Collagen I mRNA, ratio R = Sgene/Sactin” value turned out to be 0.94; the “Collagen III mRNA, ratio R = Sgene/Sactin” value amounted to 1.37; the “Elastin mRNA, ratio R = Sgene/Sactin” value is 4.87. Also, in experiment [2] (setting [5]), the “Collagen I mRNA, ratio R = Sgene/Sactin” value is on record as 0.92; the “Collagen III mRNA, ratio R = Sgene/Sactin” value amounted to 1.26; the “Elastin mRNA, ratio R = Sgene/Sactin” value is listed as 4.61.
Consider Hesperitine Laurate [Flavagrum ®], for which, in experiment [1], the “restoring cell viability and synthesis of pro-inflammatory interleukins after solar irradiation” value is “have shown an effectiveness capable of tending to restoring the reference level for these two parameters”; the “IL1 beta secretion (Fluorokine MAP)” value worked out at 125 pg/mL; the “IL6 secretion (Fluorokine MAP)” value came out at 452 pg/mL; the “IL8 secretion (Fluorokine MAP)” value came out at 312 pg/mL. Moreover, the “TNF alpha secretion (Fluorokine MAP)” value in experiment [1] is 105 pg/mL.
Regarding `C[C@]12C=CC(=O)C=C1CC[C@@H]1[C@@H]2[C@@H](O)C[C@@]2(C)[C@H]1CC[C@]2(O)C(=O)CO` [Prednisolone], in experiment [3], the “IL1α mRNA, factor of variation with respect to the non-stressed control” value was found to be 62; the “IL1β mRNA, factor of variation with respect to the non-stressed control” value turned out to be 75; the “IL6 mRNA, factor of variation with respect to the non-stressed control” value turned out to be 81; the “IL7 mRNA, factor of variation with respect to the non-stressed control” value is on record as 102. In experiment [3], the “IL8 mRNA, factor of variation with respect to the non-stressed control” value came out at 105; the “IL10 mRNA, factor of variation with respect to the non-stressed control” value was found to be 152; the “IL11 mRNA, factor of variation with respect to the non-stressed control” value came to 101; the “IL12 mRNA, factor of variation with respect to the non-stressed control” value was found to be 67. Moreover, in experiment [3], the “IL15 mRNA, factor of variation with respect to the non-stressed control” value was 99; the “IL-1R AcP mRNA, factor of variation with respect to the non-stressed control” value was found to be 95; the “IL-1RI mRNA, factor of variation with respect to the non-stressed control” value worked out at 83; the “IL-1RII mRNA, factor of variation with respect to the non-stressed control” value is reported as 88. Further, in experiment [3], the “IL-1ra mRNA, factor of variation with respect to the non-stressed control” value came out at 112; the “PLA2 mRNA, factor of variation with respect to the non-stressed control” value turned out to be 93; the “TNFα mRNA, factor of variation with respect to the non-stressed control” value is 67.
For the molecule `CCCCCCCCCCCCOS(=O)(=O)[O-].[Na+]` [SLS, sodium lauryl sulfate], in experiment [3], the “IL1α mRNA, factor of variation with respect to the non-stressed control” value is 241; the “IL1β mRNA, factor of variation with respect to the non-stressed control” value turned out to be 114; the “IL6 mRNA, factor of variation with respect to the non-stressed control” value stood at 163; the “IL7 mRNA, factor of variation with respect to the non-stressed control” value is given as 127. Further, in experiment [3], the “IL8 mRNA, factor of variation with respect to the non-stressed control” value was 183; the “IL10 mRNA, factor of variation with respect to the non-stressed control” value is on record as 75; the “IL11 mRNA, factor of variation with respect to the non-stressed control” value was found to be 112; the “IL12 mRNA, factor of variation with respect to the non-stressed control” value is on record as 132. Further, in experiment [3], the “IL15 mRNA, factor of variation with respect to the non-stressed control” value was determined as 147; the “IL-1R AcP mRNA, factor of variation with respect to the non-stressed control” value was 102; the “IL-1RI mRNA, factor of variation with respect to the non-stressed control” value is 154; the “IL-1RII mRNA, factor of variation with respect to the non-stressed control” value turned out to be 137. In addition, in experiment [3], the “IL-1ra mRNA, factor of variation with respect to the non-stressed control” value is given as 82; the “PLA2 mRNA, factor of variation with respect to the non-stressed control” value worked out at 102; the “TNFα mRNA, factor of variation with respect to the non-stressed control” value came out at 213.
